From article PMC10182601, “Biological evaluation of novel gemcitabine analog in patient-derived xenograft models of pancreatic cancer” (BMC Cancer, 2023)
Counter-ions that a name gives are not always drawn.

Columns and labels:
[1] = test system: PCa PDX tumor from Black patients; experiment: Tumor efficacy in PDX mice bearing tumors from Black PCa patients; format: in vivo; conditions: 30 mg/kg Gem equivalent i.v. twice weekly for 3 weeks
Excerpt: The implantation of surgical tumor tissue into immuno-compromised mice was described previously. A viable portion of resected tissue 2 × 2 mm in size was briefly isolated immediately from surgically resected primary PCa specimens (from Blacks and White patients) with care to minimize critical ischemia time. The PCa tissues were then implanted subcutaneously into an 8-week-old mouse (The Jackson Laboratory, Bar Harbor, ME). The xenografts were allowed to grow to a maximum diameter of 1.5 cm before passage and in vitro culture.
Mice-bearing surgically implanted tumors obtained from Black and White patients with sizes of 70–100 mm^3 were randomized into groups as control, GemHCl, and 4NSG-SLN (n = 5/group). Baseline tumor volume was established, and dosing initiation began on day 1 with intravenous administration of 30 mg/kg Gem (twice weekly for 3 weeks) with an equivalent dose of GemHCl and 4NSG-SLN [42]. Once tumors became palpable, their volume was measured thrice per week, and the mice's weight was recorded twice weekly. Tumor volumes were measured using digital calipers and calculated using the following equation: V = (L*(W)^2)/2, where V is the volume (mm^3), W(width) is the smaller of two perpendicular tumor axes, and the L (length) is the larger of two vertical axes. Mean tumor volume growth curves were calculated for each treatment group.

VEGFR = experiment: Immunohistochemistry of PDX tumor tissue, VEGFR; format: in vivo, mice; conditions: for VEGF % Moderate Positive Cells / VEGF % Positive / VEGF % Weak Positive Cells / VEGF H Score / VEGF % Strong Positive Cells: IHC
Protocol: [The source words this procedure for another target and reports this target under the same test.] Tissue samples from mice bearing tumors from Black and White PCa patients post treatments with GemHCl and 4NSG-SLN were excised and immediately washed with PBS, fixed (10% buffered formalin) for 24 h, and transferred to 70% ethanol for histopathological analysis. Histology was performed by HistoWiz Inc. (Histowiz.com) according to manufacturer protocol. Samples were embedded in paraffin, and 4 μm sections were prepared. Immunohistochemistry was performed on a Bond Rx autostainer (Leica Biosystems) with enzyme treatment (1:1000) using standard protocols (https://home.histowiz.com/faq/). Samples were incubated overnight with primary antibodies (Antibodies used were rat monoclonal F4/80 primary antibody (eBioscience, 14–4801, and 1:200), and immunohistochemical staining was done using rabbit anti-rat secondary (Vector Labs, 1:100). Bond Polymer Refine Detection was used per the manufacturer's protocol (Leica Biosystems). After staining, sections were dehydrated and filmed, coverslipped using a Tissue-Tek Prisma coverslip (Sakura). Whole slide scanning (40x) was performed on an Aperio AT2 (Leica Biosystems).

[2] = Pharmacokinetic study in mice (i.v. bolus); format: in vivo; conditions: single i.v. bolus, Gem equivalent (b110 prints 20 mg/kg)
Protocol: For pharmacokinetic (PK) studies, normal healthy mice were grouped into control, GemHCl, and 4NSG-SLN. […] After the injection, aliquots of blood samples were collected at predetermined time points (5, 10, 15, 30, 60, 120, 240, 360, 720, and 1440 min). Blood samples collected were treated with 2 mL of an extraction solvent (15% of isopropyl alcohol in ethyl acetate). The mixture was vortexed for 30 s and centrifuged at 3,000 rpm for 15 min, and the supernatant was collected and vaporized to dry overnight in a water bath. Residual solvent was removed by placing the dried samples in vacuum chamber.
Five hundred microliters (500 uL) of mobile phase solution was used to reconstitute the dried sample (mobile phase solution was made up of 5% acetonitrile in 10 mM dihydrogen phosphate buffer, pH adjusted to 3). The sample solution was centrifuged at 3,000 rpm for 15 min, supernatant collected and filtered, and samples analyzed for Gem using HPLC. The PK parameters were determined using PKSolver software.
To determine the concentration of Gem, supernatant from mouse plasma was spiked with aliquots of 0.5 μg/ml of Gem. The chromatographic analysis was performed according to the method described with minor modifications. The samples were collected using supernatants (10µL), aliquots of control (spiked), and mouse plasma. The chromatographic system consisted of an HPLC (Agilent Technologies, 1290 infinity) equipped with an auto-sampler, diode array detector (DAD), and pumps. Separation was performed using a reverse phase column (Zobrax Rapid Resolution High Definition (RRHD) Eclipse plus C18, 2.1 × 50 mm, 1.8 µm). A flow rate of 250 µL/min and injection volume of 10 μL at ambient temperature was maintained at 25 ± 1 °C while detection was performed at 268 nm. Before analysis, the reverse phase column was equilibrated with a mobile phase of 5% acetonitrile in 10 mM dihydrogen phosphate buffer, pH adjusted to 2.5 with trifluoroacetic acid (TFA). Isocratic elution was performed throughout the entire analysis, including internal standards. A calibration curve was prepared using Gem standard solutions with a concentration range of 0.063–2.0 μg/mL. A plot of the peak areas as a function of Gem concentration was plotted, and the linear equation of the calibration curve given as y = mx + c was determined, where y is the peak area, m is the slope, x is the concentration of Gem, and c is the y—intercept.

[3] = BT PDX tumor tissue after treatment
[4] = WT PDX tumor tissue after treatment

Nc1ccn([C@@H]2O[C@H](CO)[C@@H](O)C2(F)F)c(=O)n1 [GemHCl, Gemcitabine hydrochloride]
Mean terminal tumor volume ([1]; day 1, BT PDX mice): 12.5 ± 6 mm^3
Mean terminal tumor volume ([1]; day 3, BT PDX mice): 25.0 ± 12 mm^3
Mean terminal tumor volume ([1]; day 5, BT PDX mice): 35.7 ± 18 mm^3
Mean terminal tumor volume ([1]; day 7, BT PDX mice): 73.0 ± 21 mm^3
Mean terminal tumor volume ([1]; day 11, BT PDX mice): 662. ± 198 mm^3
Mean terminal tumor volume ([1]; day 13, BT PDX mice): 767. ± 194 mm^3
Mean terminal tumor volume ([1]; day 15, BT PDX mice): 911. ± 152 mm^3
Mean terminal tumor volume ([1]; day 17, BT PDX mice): 990. ± 151 mm^3
Mean terminal tumor volume ([1]; day 19, BT PDX mice): 1129 ± 172 mm^3
Mean terminal tumor volume ([1]; day 21, BT PDX mice): 1204 ± 184 mm^3
Mean terminal tumor volume ([1]; day 23, BT PDX mice): 1456 ± 154 mm^3
Mean terminal tumor volume ([1]; day 25, BT PDX mice): 1681 ± 172 mm^3
VEGF % Moderate Positive Cells (VEGFR; [3]): 0.6 ± 0.2%
VEGF % Positive (VEGFR; [3]): 27 ± 0.4%
VEGF % Weak Positive Cells (VEGFR; [3]): 1.2 ± 0.3%
VEGF H Score (VEGFR; [3]): 4.7
VEGF % Strong Positive Cells (VEGFR; BT PDX tumor tissue after treatment, first line of this name (r21)): 0.5 ± 0.1%
VEGF % Strong Positive Cells (VEGFR; BT PDX tumor tissue after treatment, second line of this name (r22)): 70.7 ± 7.8%
VEGFR expression in representative IHC images (VEGFR; BT and WT PDX tumor tissues, 40X): moderate to high
VEGF % Moderate Positive Cells (VEGFR; [4]): 0.6 ± 0.1%
VEGF % Positive (VEGFR; [4]): 30 ± 1.4%
VEGF % Weak Positive Cells (VEGFR; [4]): 0.7 ± 0.3%
VEGF H Score (VEGFR; [4]): 10.0
VEGF % Strong Positive Cells (VEGFR; WT PDX tumor tissue after treatment, first line of this name (r21)): 0.7 ± 0.3%
VEGF % Strong Positive Cells (VEGFR; WT PDX tumor tissue after treatment, second line of this name (r22)): 68 ± 3.8%
clearance ([2]; mouse, plasma, iv, read-out: Cl (clearance) (converted)): 0.355 mL/min
Vd ([2]; mouse, plasma, iv, read-out: Vd (volume of distribution)): 0.0217 ± 0.0019 L
k el ([2]; mouse, plasma, iv, read-out: k10 (elimination rate constant) (converted)): 0.000281 s⁻¹
half-life ([2]; mouse, plasma, iv, read-out: t1/2 (half-life) (converted)): 42 ± 0.6 min
AUC(0-t) [2]: 28200 ± 4300 ng·h/mL
